Results on 43 compounds are retold here after patent US20230279020A9, “CARM1 INHIBITORS AND USES THEREOF” (Epizyme, Inc., priority 2013, published 2023).

pIC50: −log10 of the molar value.

Human CARM1 (PRMT4), sequence (Q86X55 other isoform, or with tags, fused parts or gaps isoform Q86X55-1): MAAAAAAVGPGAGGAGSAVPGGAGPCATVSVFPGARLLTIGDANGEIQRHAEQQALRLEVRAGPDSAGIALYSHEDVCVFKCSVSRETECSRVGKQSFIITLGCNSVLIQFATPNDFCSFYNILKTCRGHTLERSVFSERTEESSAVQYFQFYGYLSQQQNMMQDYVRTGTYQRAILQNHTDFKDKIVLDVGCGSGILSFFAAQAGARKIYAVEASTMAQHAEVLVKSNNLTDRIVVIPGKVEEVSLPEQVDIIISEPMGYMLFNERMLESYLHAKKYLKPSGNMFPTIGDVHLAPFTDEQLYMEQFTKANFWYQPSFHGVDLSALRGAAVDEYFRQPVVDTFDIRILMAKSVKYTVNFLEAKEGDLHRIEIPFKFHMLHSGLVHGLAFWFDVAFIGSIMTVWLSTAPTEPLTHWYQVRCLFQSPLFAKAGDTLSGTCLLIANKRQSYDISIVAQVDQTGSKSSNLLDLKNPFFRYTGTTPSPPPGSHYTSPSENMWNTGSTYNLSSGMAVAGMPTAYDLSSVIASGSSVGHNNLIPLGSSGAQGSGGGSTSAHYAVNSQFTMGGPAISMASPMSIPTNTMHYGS

The assay concerns the target Human CARM1 (PRMT4) (Homo sapiens (Human), UniProt Q86X55). Nature of the assay: CARM1 enzyme assay on peptide substrate (3H-SAM Flashplate). The conditions noted are these: Biochemical potencies, classification codes; read-out: Biochem IC50.
With `CNCC(O)COc1cccc(-c2nc(NC3CN(C(=O)C4CC4)C3)c(C)c(-c3c(C)noc3C)n2)c1` (stereo not shown) [Example 264-1a], the pIC50 – broadly, −log10 of the IC50, conventionally taken in molar units – was more than 7.00.

`CNC[C@@H](O)COc1ccc(Cl)c(-c2nc(-c3c(C)noc3C)c(C)c(N3Cc4cnc(C(C)C)nc4C3)n2)c1` [Example 264-3]: the pIC50 is more than 7.00.

On to `CNCC(O)COc1cccc(-c2nc(N[C@@H]3C[C@H]4CC[C@@H](C3)N4C(=O)OC)c(C)c(-c3c(C)noc3C)n2)c1` (stereo partly shown) [Example 265-1a], for which the pIC50 is more than 7.00.

Turning to `CNC[C@@H](O)COc1ccc(Cl)c(-c2nc(-c3c(C)noc3C)c(C)c(N3Cc4cnn(CC(F)(F)F)c4C3)n2)c1` [Example 265-3], the pIC50 is more than 7.00.

For `CNCC(O)COc1cccc(-c2nc(N[C@H]3C[C@H]4CC[C@@H](C3)N4C(=O)OC)c(C)c(-c3c(C)noc3C)n2)c1` (stereo partly shown) [Example 266-1a], the pIC50 was more than 7.00.

For the compound `CNC[C@@H](O)COc1ccc(F)c(-c2nc(-c3c(C)noc3C)c(C)c(N3Cc4cccc(F)c4C3)n2)c1` [Example 266-3], the pIC50 was more than 7.00.

On to `CNCC(O)COc1cccc(-c2nc(N[C@H]3COC(=O)C3)c(C)c(-c3c(C)noc3C)n2)c1` (stereo partly shown) [Example 267-1a], for which the pIC50 is more than 7.00.

As to `CNC[C@@H](O)COc1ccc(Cl)c(-c2nc(-c3c(C)noc3C)c(C)c(N3Cc4cccc(F)c4C3)n2)c1` [Example 267-3], the pIC50 is more than 7.00.

Regarding `CNCC(O)COc1cccc(-c2nc(N[C@@H]3COC(=O)C3)c(C)c(-c3c(C)noc3C)n2)c1` (stereo partly shown) [Example 268-1a], the pIC50 is more than 7.00.

With `CNC[C@@H](O)COc1ccc(Cl)c(-c2nc(-c3c(C)noc3C)c(C)c(C3CCOCC3)n2)c1` [Example 268-3], the pIC50 is more than 7.00.

Regarding `CNCC(O)COc1cccc(-c2nc(NC3CCOCC3C)c(C)c(-c3c(C)noc3C)n2)c1` (stereo not shown) [Example 269-1a], the pIC50 is more than 7.00.

As for `CNC[C@@H](O)COc1ccc(F)c(-c2nc(-c3c(C)noc3C)c(C)c(N3CC4(CCCCO4)C3)n2)c1` [Example 269-3], the pIC50 was more than 7.00.

For the compound `CNCC(O)COc1ccc(Cl)c(-c2nc(NC3CCN(C(=O)OC)CC3)c(C)c(-c3c(C)noc3C)n2)c1` (stereo not shown) [Example 270-1a], the pIC50 is more than 7.00.

For the compound `CNC[C@@H](O)COc1ccc(Cl)c(-c2nc(-c3c(C)noc3C)c(C)c(N3Cc4cnn(C5CC5)c4C3)n2)c1` [Example 270-3], the pIC50 was more than 7.00.

With `CNCC(O)COc1cccc(-c2nc(N[C@@H]3CCOC[C@@H]3F)c(C)c(-c3c(C)noc3C)n2)c1` (stereo partly shown) [Example 271-1a], the pIC50 is more than 7.00.

Take `CNC[C@H](O)COc1ccc(Cl)c(-c2nc(-c3c(C)noc3C)c(C)c(N3Cc4cn(C(C)C)nc4C3)n2)c1` [Example 272-1a]: the pIC50 was more than 7.00.

For the compound `CNC[C@@H](O)COc1ccc(Cl)c(-c2nc(-c3c(C)noc3C)c(C)c(N3Cc4cn(C(C)C)nc4C3)n2)c1` [Example 272-3], the pIC50 was more than 7.00.

In the case of `CCS(=O)(=O)N1CC(Nc2nc(-c3cccc(OCC(O)CNC)c3)nc(-c3c(C)noc3C)c2C)C1` (stereo not shown) [Example 273-1a], the pIC50 was more than 7.00.

On to `CNCC(O)COc1ccc(Cl)c(-c2nc(NC3CCOCC3)c(C)c(-c3c(CO)noc3C)n2)c1` (stereo not shown) [Example 273-3], for which the pIC50 is more than 7.00.

With `CNCC(O)COc1cccc(-c2nc(NC[C@H]3COCCN3CC(F)F)c(C)c(-c3c(C)noc3C)n2)c1` (stereo partly shown) [Example 274-1a], the pIC50 was more than 7.00.

As for `CNC[C@@H](O)COc1ccc(F)c(-c2nc(-c3c(C)noc3C)cc(N3Cc4nccnc4C3)n2)c1` [Example 274-3], the pIC50 was more than 7.00.

For `CNCC(O)COc1cccc(-c2nc(NC3CN(C(=O)OC)C3)c(C)c(-c3c(C)noc3C)n2)c1` (stereo not shown) [Example 275-1a], the pIC50 was more than 7.00.

Consider `CNC[C@@H](O)COc1ccc(F)c(-c2nc(-c3c(C)noc3C)cc(N3Cc4cnn(C)c4C3)n2)c1` [Example 275-3], for which the pIC50 was more than 7.00.

For `CCc1onc(C)c1-c1nc(-c2cccc(OCC(O)CNC)c2)nc(NC2CCOCC2)c1C` (stereo not shown) [Example 276-1a], the pIC50 is more than 7.00.

As to `CCOC(=O)N1CCOC[C@@H]1CNc1nc(-c2cccc(OC[C@H](O)CNC)c2)nc(-c2c(C)noc2C)c1C` [Example 277-1a], the pIC50 is more than 7.00.

For the compound `CNC[C@@H](O)COc1ccc(F)c(-c2nc(-c3c(C)noc3C)cc(N3CC4(CCOCC4)C3)n2)c1` [Example 277-3], the pIC50 is more than 7.00.

As for `CCOC(=O)N1CCOC[C@@H]1CNc1nc(-c2cccc(OC[C@@H](O)CNC)c2)nc(-c2c(C)noc2C)c1C` [Example 278-1a], the pIC50 is more than 7.00.

As for `CNC[C@@H](O)COc1cccc(-c2nc(NC3CCN(C(=O)OC)CC3)cc(-c3c(C)nnn3C)n2)c1` [Example 278-3], the negative-log IC50 (pIC50) is more than 7.00.

As to `CNCC(O)COc1cccc(-c2nc(N[C@H]3CCOC[C@@H]3F)c(C)c(-c3c(C)noc3C)n2)c1` (stereo partly shown) [Example 279-1a], the pIC50 is more than 7.00.

As for `CNC[C@@H](O)COc1ccc(Cl)c(-c2nc(-c3c(C)noc3C)c(C)c(N3Cc4[nH]c(=O)[nH]c(=O)c4C3)n2)c1` [Example 279-3], the pIC50 was more than 7.00.

As to `CNCC(O)COc1cccc(-c2nc(NC3C[C@@H](O)[C@H](O)C3)c(C)c(-c3c(C)noc3C)n2)c1` (stereo partly shown) [Example 280-1a], the pIC50 is more than 7.00.

As for `CNC[C@@H](O)COc1ccc(F)c(-c2nc(-c3c(C)noc3C)c(C)c(N3CC4(CCN(CC(F)F)CC4)C3)n2)c1` [Example 280-3], the pIC50 was more than 7.00.

Consider `CNCC(O)COc1cccc(-c2nc(N[C@H]3CCOC3=O)c(C)c(-c3c(C)noc3C)n2)c1` (stereo partly shown) [Example 281-1a], for which the pIC50 is more than 7.00.

In the case of `CNC[C@@H](O)COc1ccc(F)c(-c2nc(-c3c(C)noc3C)c(C)c(N3CC4(CCN(C(=O)OC(C)C)CC4)C3)n2)c1` [Example 281-3], the pIC50 was more than 7.00.

`CNCC(O)COc1cccc(-c2nc(N[C@H]3[C@@H]4CN(C(=O)OC)C[C@@H]43)c(C)c(-c3c(C)noc3C)n2)c1` (stereo partly shown) [Example 282-1a]: the pIC50 was more than 7.00.

In the case of `CCOC(=O)N1CCC2(CC1)CN(c1nc(-c3cc(OC[C@H](O)CNC)ccc3F)nc(-c3c(C)noc3C)c1C)C2` [Example 282-3], the pIC50 is more than 7.00.

For `CNCC(O)COc1cccc(-c2nc(NCC3CCN(C4CC4)CC3)c(C)c(-c3c(C)noc3C)n2)c1` (stereo not shown) [Example 283-1a], the pIC50 was more than 7.00.

In the case of `CNC[C@@H](O)COc1ccc(Cl)c(-c2nc(-c3c(C)noc3C)c(C)c(N3CC4(CCN(CC(F)F)CC4)C3)n2)c1` [Example 283-3], the pIC50 was more than 7.00.

As for `CNCC(O)COc1cccc(-c2nc(OCC3CCN(C(=O)OC)CC3)c(C)c(-c3c(C)noc3C)n2)c1` (stereo not shown) [Example 284-1a], the pIC50 was more than 7.00.

In the case of `CNC[C@@H](O)COc1ccc(Cl)c(-c2nc(-c3c(C)noc3C)c(C)c(N3CC4(CCN(C(=O)OC(C)C)CC4)C3)n2)c1` [Example 284-3], the pIC50 is more than 7.00.

Regarding `CNCC(O)COc1cccc(-c2nc(OCC3CCN(C(=O)N(C)C)CC3)c(C)c(-c3c(C)noc3C)n2)c1` (stereo not shown) [Example 285-1a], the pIC50 is more than 7.00.

Consider `CCOC(=O)N1CCC2(CC1)CN(c1nc(-c3cc(OC[C@H](O)CNC)ccc3Cl)nc(-c3c(C)noc3C)c1C)C2` [Example 285-3], for which the pIC50 is more than 7.00.

Regarding `CNCC(O)COc1cccc(-c2nc(OCC3CCN(S(C)(=O)=O)CC3)c(C)c(-c3c(C)noc3C)n2)c1` (stereo not shown) [Example 286-1a], the pIC50 is more than 7.00.
